Experimental data published in US9458213B2, “Compositions and methods for diagnosing prostate cancer based on detection of SLC45A3-ELK4 fusion transcript” (CORNELL UNIVERSITY, priority 2009, dated 2016).

Key:
[1] = system: endogenous ELK4 mRNA in LNCaP cells; test: Hormonal treatment of LNCaP cells, quantitative RT-PCR (TAQMAN) of endogenous ELK4; format: cell-based, human
Method: (§1) FIGS. 4a-4c. Androgen stimulation of LNCaP cells and induction of SLC45A3-ELK4 (FIG. 4a), endogenous ELK4 (FIG. 4b) mRNA and KLK3 (PSA) mRNA (FIG. 4c). Bar charts are the average fold induction in LNCaP cells treated with 1nM R1881 in the absence (black bars) or presence (gray bars) of 10 μM flutamide at the indicated time points. For flutamide treatment cells were pre-treated 2 hours with 10 μM flutamide, medium was removed and the fresh medium plus 1 nM R1881 plus 10 μM flutamide were given for the indicated time points. All experiments were run in triplicates (standard deviation indicated by the error bars).
(§2) Quantitative RT-PCR using TAQMAN technology. To quantify SLC45A3-ELK4 and endogenous ELK4 transcripts, custom designed primers and probes (SLC45A3-ELK4: primers in SLC45A3 exon 1 and ELK4 exon 2, probe in ELK4 exon 2) were employed in (ELK4, Hs00360812_m1) TAQMAN Gene Expression Assays (Applied Biosystems, Foster City, Calif.) for improved sensitivity and specificity of detection. […] Each target was run in triplicate and expression levels were calculated using the comparative Ct method (ABI Bulletin 2, Applied Biosytems) with TCFL1 as a reference gene and given as fold change over the average expression levels of benign samples. […]

[2] = system: SLC45A3-ELK4 mRNA in LNCaP cells; test: Hormonal treatment of LNCaP cells, quantitative RT-PCR (TAQMAN) of SLC45A3-ELK4 fusion transcript; format: cell-based, human
Method: as §1, §2

[3] = LNCaP cells treated with R1881 (summary statement)
[4] = LNCaP cells, R1881 1 nM, twelve hours following treatment

C[C@]1(O)CC[C@H]2[C@@H]3CCC4=CC(=O)CCC4=C3C=C[C@@]21C [R1881]
regulation of endogenous ELK4 mRNA upon treatment [1, 3]: not endogenous ELK4 mRNA, was up-regulated
change in ELK4 (assay not targeting the fusion transcript) [1, 4]: no change
regulation of SLC45A3-ELK4 mRNA upon treatment [2, 3]: up-regulated
induction of SLC45A3-ELK4 [2, 4]: 25 fold
